According to patent US20220401514A1, “ANTIMICROBIAL, BACTERIOPHAGE-DERIVED POLYPEPTIDES AND THEIR USE AGAINST GRAM-NEGATIVE AND ACID-FAST BACTERIA” (CONTRAFECT CORPORATION, priority 2019, published 2022):

Key:
[1] = tested on: M. kansasii Hauduroy ATCC 12478; experiment: 45 hr MIC against M. kansasii (NTM), Mueller Hinton broth; format: cell-based, Mycobacterium kansasii
[2] = tested on: mature biofilms formed by P. aeruginosa strain ATCC 17647; experiment: Minimal Biofilm Eradicating Concentration (MBEC), Calgary Biofilm Device, crystal violet; format: cell-based, Pseudomonas aeruginosa
Method: Biofilms are then washed and treated with e.g., a 2-fold dilution series of the lysin in TSBg at e.g., 37° C. for 24 hours. After treatment, wells are washed, air-dried at e.g., 37° C. and stained with e.g., 0.05% crystal violet for 10 minutes.
Determination of Minimal Biofilm Eradicating Concentrations (MBEC). […] Biofilms were washed and treated with a 2-fold dilution series of each peptide in TSBg at 37° C. for 16 hours. […] The OD600 of extracted crystal violet was determined.

[3] = tested on: Escherichia coli; experiment: microbe, parasite or virus in culture; format: cell-based; conditions: for MIC50 / MIC100 / MIC Range: E. coli isolates (n per peptide in table)
Outline: (§1)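 Medium: CAA with added human serum. Peptides tested for minimal inhibitory concentration against each strain.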

[4] = tested on: Enterobacter cloacae; experiment: microbe, parasite or virus in culture; format: cell-based; conditions: for MIC50 / MIC100 / MIC Range: E. cloacae isolates (n per peptide in table)
Outline: as §1

[5] = tested on: P. aeruginosa strain CFS-1292; experiment: MIC at pH 6, pH 7 and pH 8; format: cell-based, Pseudomonas aeruginosa
Method: The Chp peptides were further evaluated at varying pH levels. The MIC values were determined at pH 6, pH 7, and pH 8 for 18 different Chp peptides against P. aeruginosa strain CFS-1292. […]

[6] = tested on: Klebsiella pneumoniae; format: cell-based; conditions: for MIC50 / MIC100 / MIC Range: K. pneumoniae isolates (n per peptide in table); for MIC: Klebsiella pneumoniae HM-44, CAA supplemented with human serum
Method: Determination of Minimal Inhibitory Concentrations (MIC).
Additional MIC testing was performed for several peptides against the ESKAPE pathogens Escherichia coli, Enterobacter cloacae, Klebsiella pneumoniae, and Acinetobacter baumannii, in CAA supplemented with human serum (Table D).

[7] = tested on: Pseudomonas aeruginosa, Escherichia coli, Enterobacter cloacae, Klebsiella pneumoniae, and Acinetobacter baumannii; experiment: MIC against a range of Gram-negative organisms (statements covering several species); format: cell-based; conditions: Tables 40-44 isolates
Outline: as §1

[8] = tested on: S. maltophilia; experiment: MIC against S. maltophilia isolates; format: cell-based, Stenotrophomonas maltophilia; conditions: for MIC50 / MIC100 / MIC Range: S. maltophilia isolates (n per peptide in table)
Outline: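 MIC in μg/mL for Chp peptides across several S. maltophilia isolates, n denoting the number of isolates tested.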

[9] = tested on: Pseudomonas aeruginosa; experiment: microbe, parasite or virus in culture; format: cell-based; conditions: for MIC: CAA without human serum; for MIC50 / MIC100 / MIC Range: P. aeruginosa isolates (n per peptide in table)
[10] = Stability assessment in 100% CAA; format: in vitro ADME; set-up: unit not given beside the values
Method: Stability was assessed after incubation in 100% human serum at 37° C. after 10 minutes, 1 hour, and 2 hours.
Stability assessment was further conducted in 100% CAA and rabbit serum using the same methodology discussed above.

[11] = tested on: P. aeruginosa (CFS 1292); experiment: microbe, parasite or virus in culture; format: cell-based, Pseudomonas aeruginosa
[12] = tested on: eight different strains of five species of Gram-negative bacteria; experiment: MBEC in eight strains of five species of Gram-negative bacteria; format: cell-based; conditions: for MBEC: 24 h biofilm in LB, 16 h treatment
Method: Determination of Minimal Biofilm Eradicating Concentrations (MBEC). […] The OD600 of extracted crystal violet was determined. The MBEC value of each sample was determined as the minimum drug concentration required to remove >95% of biofilm biomass as assessed by crystal violet quantitation (in comparison to untreated controls).
MBEC values were likewise determined for Chp2, Chp2-M1, and Chp10-M1 in eight different strains of five species of Gram-negative bacteria. […] The films were then washed and stained with crystal violet to visualize the MBEC.

[13] = MBEC assay format, summary statement, strain not stated there
[14] = P. aeruginosa ATCC 17647 mature biofilm, tryptic soy broth with 2% glucose
[15] = E. coli (ATCC 25922, MIC control strain), RSC 813, CAA without human serum
[16] = E. coli (HM346, colon, Crohn's disease), RSC 1212, CAA without human serum
[17] = Escherichia coli ATCC 25922, CAA supplemented with human serum
[18] = Enterobacter cloacae (ATCC 13047, MIC control strain), RSC 1240, CAA without human serum
[19] = Enterobacter cloacae ATCC 13047, CAA supplemented with human serum
[20] = P. aeruginosa 453 (Human clinical isolate, HSS), RSC 1292
[21] = P. aeruginosa (ATCC 14213, human hip wound), RSC 1111
[22] = P. aeruginosa (ATCC 15152, abscess in middle ear), RSC 1110
[23] = P. aeruginosa (ATCC 15692, infected wound), RSC 489
[24] = P. aeruginosa (ATCC 15692, infected wound), RSC 1115
[25] = P. aeruginosa (ATCC 17646, human liver abscess), RSC 1109
[26] = P. aeruginosa (ATCC 19142, tracheobronchial secretion), RSC 1108
[27] = P. aeruginosa (ATCC 25102, bacteriophage host), RSC 1114
[28] = P. aeruginosa (ATCC 27853, MIC control strain), RSC 815
[29] = P. aeruginosa (ATCC BAA-27, lab strain), RSC 1113
[30] = P. aeruginosa (PAO1, alternate source, HER1018), RSC 490

Sequence: MARRYRLSRRRSRRLFSRTALRMHRRNRLRRIMRGGIRF [Chp4]
- 45 hr MIC [1]: >0.125 µg/mL
- MBEC [2, 13]: 0.25 µg/mL
- MBEC [2, 14]: 0.25 µg/mL
- MIC [3, 15]: 2 µg/mL
- MIC [3, 16]: 4 µg/mL
- MIC50 [3]: 1 µg/mL
- MIC100 [3]: 2 µg/mL
- MIC Range [3]: 0.5 to 4 µg/mL
- MIC [3, 17]: 0.5 µg/mL
- MIC50 [4]: 0.5 µg/mL
- MIC100 [4]: 1 µg/mL
- MIC Range [4]: 0.25 to 2 µg/mL
- MIC [4, 18]: 4 µg/mL
- MIC [4, 19]: 1 µg/mL
- MIC ([5]; CAA media (pH 7)): 0.5 µg/mL
- MIC ([5]; pH 6): 0.25 µg/mL
- MIC ([5]; pH 7): 0.5 µg/mL
- MIC ([5]; pH 8): 1 µg/mL
- MIC50 [6]: 1 µg/mL
- MIC100 [6]: 1 µg/mL
- MIC Range [6]: 0.5 to 1 µg/mL
- MIC [6]: 0.25 µg/mL
- activity (good = MIC100 of ≤4) against all of P. aeruginosa, K. pneumoniae, A. baumannii, E. cloacae, and E. coli [7]: good activity
- MIC50 [8]: 0.5 µg/mL
- MIC100 [8]: 2 µg/mL
- MIC Range [8]: 0.5 to 8 µg/mL
- MIC [9, 20]: 4 µg/mL
- MIC [9, 21]: 4 µg/mL
- MIC [9, 22]: 4 µg/mL
- MIC [9, 23]: 4 µg/mL
- MIC [9, 24]: 4 µg/mL
- MIC [9, 25]: 4 µg/mL
- MIC [9, 26]: 4 µg/mL
- MIC [9, 27]: 4 µg/mL
- MIC [9, 28]: 4 µg/mL
- MIC [9, 29]: 4 µg/mL
- MIC [9, 30]: 4 µg/mL
- MIC50 [9]: 1 µg/mL
- MIC100 [9]: 1 µg/mL
- MIC Range [9]: 0.5 to 1 µg/mL
- MIC (100% CAA) [10]: 0.25

Sequence: MRLKMARRRYRLPRRRSRRLFSRTALRMHPRNRLRRIMRGGIRF [Chp2]
- 45 hr MIC [1]: 2 µg/mL
- MBEC [2, 13]: 0.25 µg/mL
- MBEC [2, 14]: 0.25 µg/mL
- Passage MIC Passage #1 (Untreated) ([11]; Passage #1, MIC of agent on untreated culture): 0.25 µg/mL
- Passage MIC Passage #1 ([11]; Passage #1, colonies from spot dilution, duplicates (1),(2)): 0.25 µg/mL
- Passage MIC Passage #2 (Untreated) ([11]; Passage #2, MIC of agent on untreated culture): 0.25 µg/mL
- Passage MIC Passage #2 ([11]; Passage #2, colonies from spot dilution, duplicates (1),(2)): 0.25 µg/mL
- Passage MIC Passage #3 (Untreated) ([11]; Passage #3, MIC of agent on untreated culture): 0.25 µg/mL
- Passage MIC Passage #3 ([11]; Passage #3, colonies from spot dilution, duplicates (1),(2)): 0.25 µg/mL
- Passage MIC Passage #4 (Untreated) ([11]; Passage #4, MIC of agent on untreated culture): 0.25 µg/mL
- Passage MIC Passage #4 ([11]; Passage #4, colonies from spot dilution, duplicates (1),(2)): 0.25 µg/mL
- Passage MIC Passage #5 (Untreated) ([11]; Passage #5, MIC of agent on untreated culture): 0.25 µg/mL
- Passage MIC Passage #5 ([11]; Passage #5, colonies from spot dilution, duplicates (1),(2)): 0.25 µg/mL
- MIC Center ([11]; spot dilution assay, colonies from center of clearing zone): No growth
- MIC Periphery ([11]; spot dilution assay, colonies from periphery of clearing zone): 0.25 µg/mL
- MIC Untreated control ([11]; spot dilution assay, untreated control): 0.25 µg/mL
- propensity towards resistance ([11]; spot dilution colonies, five passages total): no propensity towards resistance
- MIC [3, 15]: 2 µg/mL
- MIC [3, 16]: 2 µg/mL
- MIC50 [3]: 0.5 µg/mL
- MIC100 [3]: 2 µg/mL
- MIC Range [3]: 0.25 to 2 µg/mL
- MIC [3, 17]: 1 µg/mL
- MIC50 [4]: 0.5 µg/mL
- MIC100 [4]: 1 µg/mL
- MIC Range [4]: 0.125 to 1 µg/mL
- MIC [4, 18]: 4 µg/mL
- MIC [4, 19]: 1 µg/mL
- MIC ([5]; CAA media (pH 7)): 0.25 µg/mL
- MIC ([5]; pH 6): 0.25 µg/mL
- MIC ([5]; pH 7): 0.5 µg/mL
- MIC ([5]; pH 8): 0.5 µg/mL
- MIC50 [6]: 0.5 µg/mL
- MIC100 [6]: 1 µg/mL
- MIC Range [6]: 0.125 to 1 µg/mL
- MIC [6]: 0.125 µg/mL
- MBEC ([12]; A. baumanni (ATCC BAA-747)): 0.5 µg/mL
- MBEC ([12]; E. cloacae (CCUG 63317)): 2 µg/mL
- MBEC ([12]; E. coli (ATCC 25922)): 2 µg/mL
- MBEC ([12]; E. coli (ATCC 35329)): 4 µg/mL
- MBEC ([12]; E. coli (EC2)): 2 µg/mL
- MBEC ([12]; K. pneumoniae (ATCC 700603)): 4 µg/mL
- MBEC ([12]; K. pneumoniae (KP1)): 2 µg/mL
- MBEC ([12]; P. aeruginosa (ATCC 27853)): 0.25 µg/mL
- antibiofilm activity (MBEC) ([12]; biofilms formed 24 hours in LB, treated 16 hours): potent antibiofilm activity
- activity (good = MIC100 of ≤4) against all of P. aeruginosa, K. pneumoniae, A. baumannii, E. cloacae, and E. coli [7]: good activity
- MIC50 [8]: 0.5 µg/mL
- MIC100 [8]: 1 µg/mL
- MIC Range [8]: 0.5 to 1 µg/mL
- activity against S. maltophilia ([8]; Table 45 isolates): active
- MIC [9, 20]: 4 µg/mL
- MIC [9, 21]: 4 µg/mL
- MIC [9, 22]: 4 µg/mL
- MIC [9, 23]: 4 µg/mL
- MIC [9, 24]: 4 µg/mL
- MIC [9, 25]: 4 µg/mL
- MIC [9, 26]: 2 µg/mL
- MIC [9, 27]: 4 µg/mL
- MIC [9, 28]: 4 µg/mL
- MIC [9, 29]: 4 µg/mL
- MIC [9, 30]: 4 µg/mL
- MIC50 [9]: 1 µg/mL
- MIC100 [9]: 1 µg/mL
- MIC Range [9]: 0.25 to 1 µg/mL
- MIC (100% CAA) [10]: 0.25
